Experimental data published in PubChem BioAssay AID248 (DTP/NCI, 2004).
Inconclusive results and toxic doses are left out. Cut-off read from the data, not from the text of the source: active = T/C of 150% or more; inactive = T/C below 125%.

Test system: L1210 leukemia ip in BDF1 mice, survival T/C
Assay: NCI In Vivo Anticancer Drug Screen. Data for tumor model L1210 Leukemia (intraperitoneal) in B6D2F1 (BDF1) mice
Conditions: endpoint: mean survival time, higher = longer survival
In short: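 Tumor cells were implanted, animals were treated, and survival was followed. The result divides the treated measurement by the vehicle-control measurement.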

[1] = dose: 100.0 mg/kg/injection, schedule: Q04DX002 (ip), vehicle: saline with Tween-80
[2] = dose: 200.0 mg/kg/injection, schedule: Q04DX002 (ip), vehicle: saline with Tween-80
[3] = dose: 75.0 mg/kg/injection, schedule: Q01DX001 (ip), vehicle: saline
[4] = dose: 100.0 mg/kg/injection, schedule: Q01DX001 (ip), vehicle: saline
[5] = dose: 200.0 mg/kg/injection, schedule: Q01DX001 (ip), vehicle: saline
[6] = dose: 400.0 mg/kg/injection, schedule: Q01DX001 (ip), vehicle: saline
[7] = dose: 100.0 mg/kg/injection, schedule: Q04DX003 (ip), vehicle: saline with Tween-80
[8] = dose: 200.0 mg/kg/injection, schedule: Q04DX003 (ip), vehicle: saline with Tween-80
[9] = dose: 400.0 mg/kg/injection, schedule: Q04DX003 (ip), vehicle: saline with Tween-80
[10] = dose: 100.0 mg/kg/injection, schedule: Q01DX009 (ip), vehicle: Klucel (hydroxypropylcellulose) (HPC)
[11] = dose: 100.0 mg/kg/injection, schedule: Q04DX003 (ip), vehicle: Klucel (hydroxypropylcellulose) (HPC)
[12] = dose: 200.0 mg/kg/injection, schedule: Q01DX009 (ip), vehicle: Klucel (hydroxypropylcellulose) (HPC)
[13] = dose: 200.0 mg/kg/injection, schedule: Q04DX003 (ip), vehicle: Klucel (hydroxypropylcellulose) (HPC)
[14] = dose: 400.0 mg/kg/injection, schedule: Q01DX009 (ip), vehicle: Klucel (hydroxypropylcellulose) (HPC)
[15] = dose: 400.0 mg/kg/injection, schedule: Q04DX003 (ip), vehicle: Klucel (hydroxypropylcellulose) (HPC)

Measured: T/C

COc1cc(C=Nc2ccc(Cl)cc2)ccc1OC(=O)c1ccccc1
inactive: [1] 91 % of control | [2] 87 % of control

c1ccn2cncc2c1
inactive: [3] 95 % of control | dose: 150.0 mg/kg/injection, schedule: Q01DX001 (ip), vehicle: saline 106 % of control | dose: 300.0 mg/kg/injection, schedule: Q01DX001 (ip), vehicle: saline 102 % of control

CCCCCCCCCCCCCCCCC1Cc2ccccc2C1
inactive: dose: 50.0 mg/kg/injection, schedule: Q01DX001 (ip), vehicle: saline 98 % of control | [4] 101 % of control | [5] 107 % of control | [6] 101 % of control

CCCCOC(=O)c1ccc(C)s1
inactive: dose: 100.0 mg/kg/injection, schedule: Q01DX001 (ip), vehicle: carboxymethylcellulose (CMC) 95 % of control | dose: 200.0 mg/kg/injection, schedule: Q01DX001 (ip), vehicle: carboxymethylcellulose (CMC) 101 % of control | dose: 400.0 mg/kg/injection, schedule: Q01DX001 (ip), vehicle: carboxymethylcellulose (CMC) 95 % of control

O=C(CCCCC(=O)Nc1cc(C(=O)Nc2ccc(C3=NCCN3)cc2)ccc1C(=O)Nc1ccc(C2=NCCN2)cc1)Nc1cc(C(=O)Nc2ccc(C3=NCCN3)cc2)ccc1C(=O)Nc1ccc(C2=NCCN2)cc1
inactive: dose: 1.25 mg/kg/injection, schedule: Q01DX Z (ip), vehicle: saline 90 % of control | dose: 2.5 mg/kg/injection, schedule: Q01DX Z (ip), vehicle: saline 95 % of control | dose: 5.0 mg/kg/injection, schedule: Q01DX Z (ip), vehicle: saline 88 % of control | dose: 10.0 mg/kg/injection, schedule: Q01DX Z (ip), vehicle: saline 101 % of control | dose: 15.0 mg/kg/injection, schedule: Q01DX Z (ip), vehicle: methylcellulose (MC) 103 % of control | dose: 30.0 mg/kg/injection, schedule: Q01DX Z (ip), vehicle: methylcellulose (MC) 110 % of control

COC(=O)NC1CC(OC(=O)c2ccc(C)cc2)C(COC(=O)c2ccc(C)cc2)O1 (stereo not drawn)
inactive: dose: 50.0 mg/kg/injection, schedule: Q04DX003 (ip), vehicle: saline with Tween-80 96 % of control | dose: 66.0 mg/kg/injection, schedule: Q04DX003 (ip), vehicle: saline 94 % of control | [7] 97 % of control | dose: 100.0 mg/kg/injection, schedule: Q04DX003 (ip), vehicle: saline 100 % of control | dose: 150.0 mg/kg/injection, schedule: Q04DX003 (ip), vehicle: saline 95 % of control | [8] 100 % of control | dose: 225.0 mg/kg/injection, schedule: Q04DX003 (ip), vehicle: saline 95 % of control | dose: 337.0 mg/kg/injection, schedule: Q04DX003 (ip), vehicle: saline 103 % of control | [9] 96 % of control

CC(C)([CH2][Sn]([Cl])([Cl])[CH2]C(C)(C)c1ccccc1)c1ccccc1
inactive: dose: 0.1 mg/kg/injection, schedule: Q04DX002 (ip), vehicle: saline with Tween-80 95 % of control | dose: 0.2 mg/kg/injection, schedule: Q04DX002 (ip), vehicle: saline with Tween-80 95 % of control | dose: 0.4 mg/kg/injection, schedule: Q04DX002 (ip), vehicle: saline with Tween-80 95 % of control | dose: 0.8 mg/kg/injection, schedule: Q04DX002 (ip), vehicle: saline with Tween-80 92 % of control | dose: 3.13 mg/kg/injection, schedule: Q04DX002 (ip), vehicle: saline with Tween-80 98 % of control

C1=NC(c2ccccc2)=CN(C2CCCCC2)C1(c1ccccc1)C1CCCCC1 (stereo not drawn)
inactive: dose: 50.0 mg/kg/injection, schedule: Q04DX002 (ip), vehicle: saline with Tween-80 99 % of control | dose: 100.0 mg/kg/injection, schedule: Q04DX002 (ip), vehicle: Klucel (hydroxypropylcellulose) (HPC) 92 % of control | [1] 105 % of control | dose: 200.0 mg/kg/injection, schedule: Q04DX002 (ip), vehicle: Klucel (hydroxypropylcellulose) (HPC) 98 % of control | [2] 96 % of control | dose: 400.0 mg/kg/injection, schedule: Q04DX002 (ip), vehicle: Klucel (hydroxypropylcellulose) (HPC) 98 % of control

CC(C)CCCC(C)C1CCC2C3CC=C4CC(OP(=O)(N5CC5)N5CC5)CCC4(C)C3CCC12C (stereo not drawn)
inactive: dose: 50.0 mg/kg/injection, schedule: Q01DX001 (sc), vehicle: steriod suspending solution 102 % of control | dose: 100.0 mg/kg/injection, schedule: Q01DX001 (sc), vehicle: steriod suspending solution 96 % of control | dose: 200.0 mg/kg/injection, schedule: Q01DX001 (sc), vehicle: steriod suspending solution 94 % of control | dose: 400.0 mg/kg/injection, schedule: Q01DX001 (sc), vehicle: steriod suspending solution 89 % of control

O=C(OCC1OC(n2c(=O)[nH]c(=O)c3ncsc32)C(OC(=O)c2ccccc2)C1OC(=O)c1ccccc1)c1ccccc1 (stereo not drawn)
inactive: dose: 100.0 mg/kg/injection, schedule: Q01DX005 (ip), vehicle: saline 95 % of control | dose: 200.0 mg/kg/injection, schedule: Q01DX005 (ip), vehicle: saline 101 % of control

Clc1ccc(CSc2ncc(Br)c(N3CC3)n2)cc1
inactive: dose: 100.0 mg/kg/injection, schedule: Q01DX Z (ip), vehicle: methylcellulose (MC) 93 % of control | dose: 200.0 mg/kg/injection, schedule: Q01DX Z (ip), vehicle: methylcellulose (MC) 88 % of control

O=c1c2ccccc2nnn1-c1ccc([N+](=O)[O-])cc1
inactive: [4] 97 % of control | [5] 94 % of control | [6] 95 % of control

CC1OC2COC(C)OC2C(C(O)COC(c2ccccc2)(c2ccccc2)c2ccccc2)O1 (stereo not drawn)
inactive: [10] 93 % of control | [11] 98 % of control | [12] 95 % of control | [13] 97 % of control | [14] 101 % of control | [15] 95 % of control

Cc1ccc(NC(=S)/C(=C(\[O-])c2ccc([N+](=O)[O-])cc2)[n+]2ccc(C(C)C)cc2)c(C)c1
inactive: [10] 101 % of control | [12] 98 % of control | [14] 101 % of control

CCCP(=S)(CCC)CCC
inactive: dose: 100.0 mg/kg/injection, schedule: Q01DX001 (ip), vehicle: saline with Tween-80 103 % of control | dose: 200.0 mg/kg/injection, schedule: Q01DX001 (ip), vehicle: saline with Tween-80 94 % of control

O=C(N/N=C\c1ccc(Cl)cc1)C(O)C(O)C(O)C(O)CO (stereo not drawn)
inactive: [10] 100 % of control | [12] 91 % of control | [14] 89 % of control

Cc1ccc(C)c2c3c(oc12)CCCC3
inactive: [4] 91 % of control | [5] 94 % of control | [6] 105 % of control

Clc1ccc(N2CCN(c3ccc(Cl)cc3)CC2)cc1
inactive: [11] 88 % of control | [13] 101 % of control | [15] 87 % of control

O=C(NC(CSCc1ccccc1)C(=O)Oc1ccc([N+](=O)[O-])cc1)OCc1ccccc1 (stereo not drawn)
inactive: dose: 12.0 mg/kg/injection, schedule: Q01DX009 (ip), vehicle: gum acacia 91 % of control | dose: 25.0 mg/kg/injection, schedule: Q01DX009 (ip), vehicle: gum acacia 111 % of control | dose: 25.0 mg/kg/injection, schedule: Q04DX003 (ip), vehicle: gum acacia 91 % of control | dose: 50.0 mg/kg/injection, schedule: Q01DX009 (ip), vehicle: gum acacia 87 % of control | dose: 50.0 mg/kg/injection, schedule: Q04DX003 (ip), vehicle: gum acacia 88 % of control | dose: 100.0 mg/kg/injection, schedule: Q04DX003 (ip), vehicle: gum acacia 92 % of control

C=CS(=O)(=O)c1ccccc1
inactive: dose: 18.0 mg/kg/injection, schedule: Q04DX003 (ip), vehicle: saline with Tween-80 102 % of control | dose: 25.0 mg/kg/injection, schedule: Q01DX009 (ip), vehicle: Klucel (hydroxypropylcellulose) (HPC) 91 % of control | dose: 36.0 mg/kg/injection, schedule: Q04DX003 (ip), vehicle: saline with Tween-80 104 % of control | dose: 50.0 mg/kg/injection, schedule: Q01DX009 (ip), vehicle: Klucel (hydroxypropylcellulose) (HPC) 91 % of control | dose: 72.0 mg/kg/injection, schedule: Q04DX003 (ip), vehicle: saline with Tween-80 98 % of control | [10] 94 % of control | [7] 97 % of control | [8] 92 % of control | [9] 95 % of control

COC1CCCC(/C(=C\Br)c2ccccc2)C1 (stereo not drawn)
inactive: [4] 106 % of control | [5] 106 % of control | [6] 115 % of control

CC(C(O)c1ccccc1)[n+]1ccccc1 (stereo not drawn)
inactive: [3] 102 % of control
